In paper PMC7772889, “Integrating biokinetics and in vitro studies to evaluate developmental neurotoxicity induced by chlorpyrifos in human iPSC-derived neural stem cells undergoing differentiation towards neuronal and glial cells” (Reproductive Toxicology (Elmsford, N.y.), 2020):

Experiments:
[1] = Cross-contamination among wells; format: physicochemical
Procedure: In the adjacent wells to those containing CPF, at the applied concentrations, a corresponding amount of DMSO (vehicle control) was added. At the end of the experiment, the content of these control wells was stored at −80 °C until HPLC analysis. The CPF content in control wells served as an indication of possible contamination across wells, due to CPF evaporation.

Adsorption to plastic = format: in vitro ADME
Procedure: Since CPF is a lipophilic chemical, its potential adsorption to the plastic wells was evaluated during the kinetic experiments. At the end of each experiment, the content (cells and medium) of each sample well was removed. Wells were washed twice with PBS, to remove possible cellular debris and 3 mL methanol (MeOH) were added. The plate was sealed with Parafilm and kept under gentle shaking at room temperature for 2h, before transferring the complete volume into amber glass vials with screw caps. The fractions were stored at −80 °C until HPLC analysis.

[2] = Non-specific binding to the matrix (Matrigel, without cells); format: in vitro ADME; details: no cells
Procedure: Due to the presence of Matrigel (Reduced Growth Factors), pre-coated well plates were treated in parallel, with the same experimental conditions of the main experiment, but in the absence of cells. In order to determine if and how CPF was sequestered by proteins in Matrigel, the content of the pre-coated wells was transferred into amber glass vials with screw caps and stored at −80 °C until HPLC analysis. For all these analyses, 4 biological replicates were carried out.

[3] = system: hiPSC-derived NSCs undergoing differentiation; assay: Synaptogenesis by immunocytochemistry and HCI (overlapping SYP+/PSD95+ puncta); format: cell-based, human; details: 14 days, concentrations ≤ IC20
Procedure: (§1) After 14 days of treatment with CPF at the nominal concentrations of 18.45, 21.21, 24.39, 28.05, 32.26, and 37.10 μM (37.10 μM equal to IC20), obtained considering a 1-to-1.15 dilution factor, cells were fixed with 4 % formaldehyde for 10 min and washed three times in PBS 1 × . After 15 min permeabilization with PBS 1X containing 0.1 % Triton-X-100 and 3,5 % bovine serum albumin (BSA), cells were further incubated with 3,5 % BSA and 1X PBS (blocking solution) for 15 min, to prevent nonspecific binding of antibodies, and then incubated at 4 °C overnight with primary antibodies in blocking solution. […] Neurite outgrowth and BDNF protein levels were assessed by staining the cells with an antibody specific for β-III-tubulin (mouse, 1:500, ThermoFisher), and one for BDNF (rabbit, 1:70, ThermoFisher). […] Mean fluorescence intensity and the relative percentages of immunocytochemically-defined cell types were quantified using the ArrayScan™ XTI High Content Platform (Cellomics) (ThermoFisher) and the ArrayScan algorithm 'Neuronal Profiling V4.1', as previously described. […] Other masks were applied to identify the neurites, their branch points, and the fluorescence intensity levels of SYP and PSD95 puncta, or BDNF protein. […]

BDNF protein = BDNF protein levels by immunocytochemistry and HCI; format: cell-based, human; details: 14 days of CPF treatment, dose-dependent, vs solvent control
Procedure: as §1

[4] = system: hiPSC-derived NSCs undergoing differentiation; assay: Spontaneous electrical activity by multi-well MEA; format: cell-based, human
Procedure: Cells were plated in complete ND medium onto polyethyleneimine (PEI)- and laminin-coated 24-well-MEA plates (24-Well Plate Glass (24W300/30G-288) V.232, 12 gold microelectrodes/well) (MultiChannel Systems) (5 × 10^5 cells/well), and on day 7 of differentiation cells were treated with CPF at 21 μM or solvent control (0.1 % DMSO) for 14 days. Electrical activity was evaluated before adding CPF (0d) or solvent control, and monitored after 3, 7, 10 and 14 days of treatment (Fig. 2). Representative electrode recordings were considered for the analysis of spike rate (number of spikes/sec), burst count (considering a burst as a train of at least 5 spikes occurring within 100 millisec), and network burst count (the number of bursts that resulted synchronized among all 12 electrodes). Electrical activity was recorded using the Multi-well MEA-System, considering a sampling rate of 20,000 Hz, a low-pass filter cutoff frequency of 3500 Hz, and a high-pass filter cutoff frequency of 100 Hz. Data represent the average of at least three biological replicates.

[5] = system: hiPSC-derived NSCs undergoing differentiation; design: method as in PMID 32093744; details: 14-day treatment, resazurin, cited from earlier work
[6] = 21 μM (IC5), significant after 7-day treatment

CCOP(=S)(OCC)Oc1nc(Cl)c(Cl)cc1Cl [CPF, Chlorpyrifos]
Cross-contamination among wells ([1]; first day of treatment): Not detectable | Cross-contamination among wells ([1]; last day of treatment): Not detectable | Bound-to-plastic fraction (Adsorption to plastic; first day of treatment): 0−8.4% | Bound-to-plastic fraction (Adsorption to plastic; last day of treatment): 7.5−16.5% | Bound-to-matrigel fraction ([2]; first day of treatment): 1.7−4.2% | Bound-to-matrigel fraction ([2]; last day of treatment): 5.8−6.5% | number of synapses (co-localization of SYP+/PSD95+ puncta) [3]: remarkable dose-dependent decrease | increase of BDNF protein levels (BDNF protein): ≤ 55% | number of bursts [4, 6]: modest decrease | spike rate [4, 6]: modest decrease | number of synchronized network bursts ([4]; 21 μM, starting from the 10th day of treatment): decrease | IC5 (nominal concentration causing 5 % decrease of viability) [5]: 21 µM | IC20 ([5]; nominal concentration, read-out: IC20 (viability)): 37.1 µM
